Source: ChEMBL document CHEMBL1152048, “N-(1-phenyl-2-benzimidazolyl)-N-phenylurea derivatives as potent in hibitors of acylcoa:cholesterol acyltransferase (ACAT)” (Bioorg Med Chem Lett, 1995)

Assays:
[1] = target: T1, Acyl-CoA:cholesterol acyltransferase (Oryctolagus cuniculus) (UniProt Q95214); experiment: In vitro inhibitory activity towards acyl CoA cholesterol acyltransferase (ACAT) of cholesterol-fed rabbits by the displacement of [14C]oleolyl-CoA at 1 uM
T1 sequence (whole entry): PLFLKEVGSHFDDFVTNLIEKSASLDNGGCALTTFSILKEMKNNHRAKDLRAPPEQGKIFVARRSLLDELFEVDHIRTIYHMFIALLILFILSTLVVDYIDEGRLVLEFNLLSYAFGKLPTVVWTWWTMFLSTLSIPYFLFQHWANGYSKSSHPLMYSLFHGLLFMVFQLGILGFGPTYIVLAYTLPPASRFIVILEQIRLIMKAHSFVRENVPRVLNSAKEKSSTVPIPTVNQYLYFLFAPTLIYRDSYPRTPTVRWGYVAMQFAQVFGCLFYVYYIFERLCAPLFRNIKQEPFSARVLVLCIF

[2] = target: T2, Acyl-CoA:cholesterol acyltransferase (Oryctolagus cuniculus, UniProt Q95214); experiment: In vitro inhibitory activity towards acyl CoA cholesterol acyltransferase (ACAT) of cholesterol-fed rabbits by the displacement of [14C]oleolyl-CoA
T2 sequence (Q95214 whole entry): T1 sequence (whole entry)

Cricetinae gen. sp. = experiment: Compound was tested in vivo at a dose of 10 (mg/kg) for percent inhibition in increased serum total cholesterol in golden hamsters fed with a diet containing 2% cholesterol; format: functional, Mesocricetus auratus

Row | SMILES | inhibition [1] [%] | IC50 [2] [nM] | Reduction (Cricetinae gen. sp.) [%]
1 | CC(C)c1cccc(C(C)C)c1NC(=O)Nc1nc2ccccc2n1-c1cc(C(=O)O)ccc1Cl | 2 |  | 
2 | CC(C)c1cccc(C(C)C)c1NC(=O)Nc1nc2ccccc2n1-c1c(Cl)cccc1Cl |  | 11 | 74
3 | CC(C)c1cccc(C(C)C)c1NC(=O)Nc1nc2ccccc2n1-c1ccccc1O |  | 200 | 
4 | Cc1ccccc1-n1c(NC(=O)Nc2c(C(C)C)cccc2C(C)C)nc2ccccc21 |  | 19 | 
5 | CC(C)c1cccc(C(C)C)c1NC(=O)Nc1nc2ccccc2n1-c1ncccc1Cl |  | 100 | 
6 | Cc1cccc(C)c1NC(=O)Nc1nc2ccccc2n1-c1ccccc1Cl |  | 420 | 
7 | CC(C)c1cccc(C(C)C)c1NC(=O)Nc1nc2ccccc2n1-c1ccccc1N(C)C |  | 41 | 102
8 | Cc1cc(C)c(NC(=O)Nc2nc3ccccc3n2-c2c(Cl)cccc2Cl)c(C)c1 | 24 |  | 
9 | CC(C)c1cccc(C(C)C)c1NC(=O)Nc1nc2ccccc2n1-c1ccc(Cl)cc1 |  | 280 | 
10 | CC(C)c1cccc(C(C)C)c1NC(=O)Nc1nc2ccccc2n1-c1ccccc1Cl |  | 18 | 80
11 | CC(C)c1cccc(C(C)C)c1NC(=O)Nc1nc2ccccc2n1-c1cccc(Cl)c1 |  | 20 | 
12 | CC(C)c1cccc(C(C)C)c1NC(=O)Nc1nc2ccccc2n1-c1ccccc1 |  | 66 | 
13 | CC(C)c1cccc(C(C)C)c1NC(=O)Nc1nc2cccnc2n1-c1ccccc1Cl |  | 33 | 76
14 | CC(C)c1cccc(C(C)C)c1NC(=O)Nc1nc2ccccc2n1-c1ccccc1Br |  | 22 | 37
15 | O=C(Nc1ccc(F)cc1F)Nc1nc2ccccc2n1-c1ccccc1Cl | 27 |  | 
16 | CC(C)c1cccc(C(C)C)c1NC(=O)Nc1nc2ccccc2n1-c1ccccc1C(F)(F)F |  | 72 | 
17 | COc1ccccc1-n1c(NC(=O)Nc2c(C(C)C)cccc2C(C)C)nc2ccccc21 |  | 20 | 
18 | Cc1ncccc1-n1c(NC(=O)Nc2c(C(C)C)cccc2C(C)C)nc2ccccc21 |  | 100 | 
